Test results as given in publication PMC7044277 (Nature Communications, 2020).
Where “and” joins values, the source holds several entries; their conditions need not be identical. Identical values can stand only once.

Tests used:
Format in all cases: cell-based
320 non-olfactory GPCRs [1] = target: T1, 320 non-olfactory GPCRs (Homo sapiens, UniProt P47871)
T1 construct: expressed in transfected cells; host or cells: HTLA cells

320 non-olfactory GPCRs [2] = target: T2, 320 non-olfactory GPCRs (Homo sapiens, UniProt Q96RI0)
T2 construct: expressed in transfected cells; host or cells: HTLA cells

320 non-olfactory GPCRs [3] = target: T3, 320 non-olfactory GPCRs (Homo sapiens, UniProt P24530)
T3 construct: expressed in transfected cells; host or cells: HTLA cells

320 non-olfactory GPCRs [4] = target: T4, 320 non-olfactory GPCRs (Homo sapiens, UniProt P34995); settings: receptor PTGER1; replicate values, Fig_4g
T4 construct: expressed in transfected cells; host or cells: HTLA cells
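Throughout, for Fold of Basal: compound tested at 1 µM final concentration.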
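Throughout, for GPCRome agonism screen response: fold over basal response of each receptor without drug.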

T4 sequence (P34995 whole entry): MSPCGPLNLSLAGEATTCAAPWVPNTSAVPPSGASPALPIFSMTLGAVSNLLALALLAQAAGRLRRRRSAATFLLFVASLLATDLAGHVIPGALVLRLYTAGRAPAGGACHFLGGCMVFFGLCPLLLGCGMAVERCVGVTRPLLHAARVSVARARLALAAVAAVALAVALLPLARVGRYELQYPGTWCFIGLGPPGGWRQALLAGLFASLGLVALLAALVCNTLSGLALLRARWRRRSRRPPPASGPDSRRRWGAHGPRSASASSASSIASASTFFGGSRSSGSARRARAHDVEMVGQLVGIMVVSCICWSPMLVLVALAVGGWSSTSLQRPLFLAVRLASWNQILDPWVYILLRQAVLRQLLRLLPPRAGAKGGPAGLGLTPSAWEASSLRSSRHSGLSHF
T2 sequence (Q96RI0 18-385): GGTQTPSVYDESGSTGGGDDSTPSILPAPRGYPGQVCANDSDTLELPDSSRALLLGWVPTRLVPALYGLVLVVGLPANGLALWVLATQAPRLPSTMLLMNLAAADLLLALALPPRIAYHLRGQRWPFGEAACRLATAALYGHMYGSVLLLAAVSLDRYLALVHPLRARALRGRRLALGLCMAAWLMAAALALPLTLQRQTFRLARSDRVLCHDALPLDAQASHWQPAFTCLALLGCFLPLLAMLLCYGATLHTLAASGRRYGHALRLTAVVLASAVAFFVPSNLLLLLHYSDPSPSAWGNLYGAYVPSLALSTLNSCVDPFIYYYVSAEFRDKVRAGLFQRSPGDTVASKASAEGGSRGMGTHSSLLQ
T3 sequence (P24530 27-442): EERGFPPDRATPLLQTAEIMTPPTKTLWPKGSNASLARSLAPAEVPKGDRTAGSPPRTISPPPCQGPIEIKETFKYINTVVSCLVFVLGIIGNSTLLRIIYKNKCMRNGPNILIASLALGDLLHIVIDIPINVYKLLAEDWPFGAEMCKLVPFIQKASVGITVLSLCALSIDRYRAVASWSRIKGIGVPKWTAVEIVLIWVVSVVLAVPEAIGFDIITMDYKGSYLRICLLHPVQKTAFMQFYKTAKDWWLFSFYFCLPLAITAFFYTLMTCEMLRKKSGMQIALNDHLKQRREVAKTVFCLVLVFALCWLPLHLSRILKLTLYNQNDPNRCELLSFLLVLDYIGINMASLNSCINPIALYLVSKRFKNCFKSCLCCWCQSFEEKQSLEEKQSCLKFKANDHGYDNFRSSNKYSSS
T1 sequence (P47871 26-477): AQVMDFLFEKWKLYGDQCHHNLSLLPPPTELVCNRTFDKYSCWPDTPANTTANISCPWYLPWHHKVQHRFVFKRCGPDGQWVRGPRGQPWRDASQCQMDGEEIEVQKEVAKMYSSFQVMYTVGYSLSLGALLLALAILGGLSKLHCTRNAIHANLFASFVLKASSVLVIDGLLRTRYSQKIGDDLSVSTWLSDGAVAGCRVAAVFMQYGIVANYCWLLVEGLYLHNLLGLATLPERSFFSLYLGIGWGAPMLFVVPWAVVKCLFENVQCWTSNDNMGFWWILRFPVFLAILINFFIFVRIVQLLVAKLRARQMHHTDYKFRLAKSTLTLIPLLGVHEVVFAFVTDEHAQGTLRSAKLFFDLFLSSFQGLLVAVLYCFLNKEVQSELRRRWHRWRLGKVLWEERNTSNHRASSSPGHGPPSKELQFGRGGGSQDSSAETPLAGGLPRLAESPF

Which “Fold of Basal” value (320 non-olfactory GPCRs [1]) does the source give for `CCOc1cccc2cc(C(C)NCC3(O)CCCCC3)oc12` (stereo not shown) [O4LE6] here?
Its value is 1.104 and 0.7209 and 1.128 and 1.0533.

What about the “Fold of Basal” value (320 non-olfactory GPCRs [2]) of the same compound?
The value was 0.98 and 0.6043 and 0.591 and 0.7202.

And the “Fold of Basal” value (320 non-olfactory GPCRs [3])?
The value was 0.7302 and 0.8478 and 0.8324 and 1.412.

And the “GPCRome agonism screen response” value (320 non-olfactory GPCRs [4])?
The value was 0.6283 and 0.5508 and 0.6804 and 0.7397.
